Experiments:
huPPARγ = target: T1, huPPARγ (Homo sapiens, UniProt P37231); assay: DNA-dependent binding (ABCD binding), SPA, radioligand displacement; conditions: tritium-labeled PPARγ agonist radioligand
T1 sequence (P37231 1-505): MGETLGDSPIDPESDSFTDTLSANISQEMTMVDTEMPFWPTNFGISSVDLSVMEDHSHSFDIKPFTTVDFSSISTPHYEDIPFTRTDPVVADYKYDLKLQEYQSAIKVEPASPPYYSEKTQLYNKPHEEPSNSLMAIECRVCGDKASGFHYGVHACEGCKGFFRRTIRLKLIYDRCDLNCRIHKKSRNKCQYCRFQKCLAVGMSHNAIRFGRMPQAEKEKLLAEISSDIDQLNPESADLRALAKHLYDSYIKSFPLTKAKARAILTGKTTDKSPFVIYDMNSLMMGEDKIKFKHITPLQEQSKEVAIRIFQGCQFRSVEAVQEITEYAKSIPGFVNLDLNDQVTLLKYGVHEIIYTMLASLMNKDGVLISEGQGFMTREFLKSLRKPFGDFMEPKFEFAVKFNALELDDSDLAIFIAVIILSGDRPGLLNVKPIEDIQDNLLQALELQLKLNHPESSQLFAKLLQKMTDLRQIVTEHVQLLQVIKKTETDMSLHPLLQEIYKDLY
T1 sequence (P19793 1-462 partner): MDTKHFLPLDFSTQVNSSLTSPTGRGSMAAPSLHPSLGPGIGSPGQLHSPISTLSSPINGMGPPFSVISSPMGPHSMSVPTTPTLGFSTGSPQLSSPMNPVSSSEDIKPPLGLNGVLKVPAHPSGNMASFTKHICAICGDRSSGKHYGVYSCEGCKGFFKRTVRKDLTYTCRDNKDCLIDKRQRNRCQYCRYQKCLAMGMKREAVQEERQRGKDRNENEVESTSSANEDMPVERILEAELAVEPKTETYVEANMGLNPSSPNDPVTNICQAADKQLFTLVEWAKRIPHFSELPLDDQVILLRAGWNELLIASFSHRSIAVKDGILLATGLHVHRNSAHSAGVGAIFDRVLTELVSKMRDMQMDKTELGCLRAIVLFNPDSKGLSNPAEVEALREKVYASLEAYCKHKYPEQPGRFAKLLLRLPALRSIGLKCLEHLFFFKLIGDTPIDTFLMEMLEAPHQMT
Method: (§1) […] binding (ABCD binding) was carried out using SPA technology with PPAR receptors. Tritium-labeled PPARα and PPARγ agonists were used as radioligands for generating displacement curves and IC50 values with compounds of the invention. Cotransfection assays were carried out in CV-1 cells. The reporter plasmid contained an acylCoA oxidase (AOX) PPRE and TK promoter upstream of the luciferase reporter cDNA. Appropriate PPARs and RXRα were constitutively expressed using plasmids containing the CMV promoter. […] In order to eliminate such interference, a GAL4 chimeric system was used in which the DNA binding domain of the transfected PPAR was replaced by that of GAL4, and the GAL4 response element was utilized in place of the AOX PPRE. Cotransfection efficacy was determined relative to PPARα agonist and […] reference molecules. Efficacies were determined by computer fit to a concentration-response curve, or in some cases at a single high concentration of agonist (10 μM). For binding or cotransfection studies with receptors other than PPARs, similar assays were carried out using appropriate ligands, receptors, reporter constructs, etc., for that particular receptor.
(§2) These studies were carried out to evaluate the ability of compounds of the invention to bind to and/or activate various nuclear transcription factors, particularly huPPARα (“hu” indicates “human”) and huPPARγ. These studies provide in vitro data concerning efficacy and selectivity of compounds of the invention. Furthermore, binding and cotransfection data for compounds of the invention were compared with corresponding data for marketed compounds that act on either huPPARα or huPPARγ.

huPPARα = target: T2, huPPARα (Homo sapiens, UniProt Q07869); assay: as above; conditions: tritium-labeled PPARα agonist radioligand
T2 sequence (Q07869 1-468): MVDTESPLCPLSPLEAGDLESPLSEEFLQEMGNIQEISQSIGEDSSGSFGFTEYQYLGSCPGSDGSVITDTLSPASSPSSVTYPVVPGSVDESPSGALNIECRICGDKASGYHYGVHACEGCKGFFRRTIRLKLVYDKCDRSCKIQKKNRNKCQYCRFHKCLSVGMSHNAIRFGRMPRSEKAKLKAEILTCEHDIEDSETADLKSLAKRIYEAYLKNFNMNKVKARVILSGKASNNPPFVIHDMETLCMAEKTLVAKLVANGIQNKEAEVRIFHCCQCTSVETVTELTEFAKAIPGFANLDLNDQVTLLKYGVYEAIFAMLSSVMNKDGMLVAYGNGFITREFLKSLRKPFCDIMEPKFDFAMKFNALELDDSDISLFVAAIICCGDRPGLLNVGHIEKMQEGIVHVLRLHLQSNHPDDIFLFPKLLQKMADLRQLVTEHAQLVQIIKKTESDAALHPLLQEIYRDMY
T2 sequence (P19793 1-462 partner): T1 sequence (P19793 1-462 partner)
Method: as §1, §2

Q: Which results are given for `Cc1oc(-c2cccc(-c3ccc(F)cc3)c2)nc1CCOc1ccc(CC(C)(Oc2ccccc2)C(=O)O)cc1` (centres unmarked) [Example 4, 3-(4-{2-[2-(4′-Fluorobiphenyl-3-yl)-5-methyloxazol-4-yl]ethoxy}phenyl)-2-methyl-2-phenoxypropionic acid]?
A: IC50 (huPPARγ): 41 nM; IC50 (huPPARα): 147 nM
